The results in this text go back to ChEMBL document CHEMBL1201862, “PubChem BioAssay data set” (2004).

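Method: 48-hour compound exposure of cells in 96-well plates, five concentrations, linear interpolation of endpoints. GI50 = concentration required for 50% inhibition of growth.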 Activity calls are given as the source filed them. Rule as the data show it: active = GI50 up to about 1.1 µM and inactive = higher.

Test systems include 786-0; BT-549; CAKI-1; CCRF-CEM; HCC 2998; HCT-15; Hs-578T; MDA-MB-231; NCI-H226; NCI-H460; NCI-H522; NCI/ADR-RES; OVCAR-3; OVCAR-5; OVCAR-8; SK-MEL-28; SNB-75; SR; TK-10; U-251.
Assay in all cases: NCI-60 cell line screen, 48 h

With `CN(C)c1ccc(/C(F)=C(F)/C(F)=C(F)/C(F)=C(\F)c2ccc(Br)cc2)cc1`, the GI50 in the experiment on 786-0 is 3.92 µM (inactive); with BT-549, 31.8 µM (inactive); with CAKI-1, 18.7 µM (inactive); in the experiment on CCRF-CEM, 29.4 µM (inactive); with HCC 2998, 18.2 µM (inactive); in the experiment on HCT-15, 13.3 µM. The GI50 is 17.2 µM (inactive) with Hs-578T; 39.5 µM (inactive) with MDA-MB-231; 50 µM (inactive) in the experiment on NCI-H226; 26.2 µM (inactive) in the experiment on NCI-H460; 7.46 µM (inactive) in the experiment with NCI-H522; 6.4 µM (inactive) in the experiment on NCI/ADR-RES. Further, the GI50 in the experiment with OVCAR-3 was 9.38 µM (inactive); with OVCAR-5, 23.8 µM (inactive); in the experiment with OVCAR-8, 33 µM (inactive); with SK-MEL-28, > 100 µM (inactive); in the experiment with SNB-75, 27.2 µM (inactive); with SR it was 5 µM (inactive). Further, the GI50 with TK-10 was > 75.5 µM (inactive); in the experiment on U-251 it was 17.5 µM (inactive).

`CC1CC[C@@]2(OC1)OC1C[C@H]3[C@@H]4CC=C5CC(OC6OC(CO)C(OC7OC(CO)C(O)C(OC8OCC(O)C(O)C8O)C7OC7OC(CO)C(O)C(O)C7O)C(O)C6O)CCC5(C)[C@H]4CCC3(C)C1[C@@H]2C` (stereo not given in full): the GI50 was 5.9 µM (inactive) in the experiment on 786-0; 4.38 µM (inactive) in the experiment on BT-549; 4.95 µM (inactive) in the experiment on CAKI-1; 5.16 µM (inactive) with CCRF-CEM; 4.68 µM (inactive) with HCC 2998; 14.9 µM in the experiment with HCT-15. Also, the GI50 is 4.66 µM (inactive) with Hs-578T; 4.66 µM (inactive) in the experiment on MDA-MB-231; 13.3 µM (inactive) in the experiment with NCI-H226; 5.52 µM (inactive) in the experiment with NCI-H460; 4.72 µM (inactive) in the experiment on NCI-H522; 5.97 µM (inactive) with NCI/ADR-RES. Moreover, the GI50 in the experiment with OVCAR-3 was 4.93 µM (inactive); with OVCAR-5, 8.51 µM (inactive); with OVCAR-8 it was 4.61 µM (inactive); in the experiment on SK-MEL-28, 12.3 µM (inactive); in the experiment on SNB-75, 7.69 µM (inactive); in the experiment with SR it was 7.23 µM (inactive). The GI50 with TK-10 is 7.43 µM (inactive); in the experiment with U-251, 4.68 µM (inactive).

On to `COc1ccc(/C=C(/C(=O)c2ccc(Cl)cc2)N2C=CC=CC2=C(C#N)C#N)cc1OC`, for which the GI50 in the experiment with 786-0 was 1.94 µM (inactive); in the experiment on BT-549 it was 7.85 µM (inactive); with CAKI-1, 1.31 µM (inactive); in the experiment with CCRF-CEM it was 0.115 µM (active); with HCC 2998, 1.99 µM (inactive); in the experiment on HCT-15 it was 2.17 µM. Besides, the GI50 is 1.66 µM (inactive) in the experiment with Hs-578T; 6.24 µM (inactive) in the experiment on MDA-MB-231; 17.8 µM (inactive) in the experiment on NCI-H226; 12.9 µM (inactive) in the experiment with NCI-H460; 0.243 µM (active) with NCI-H522; 10.4 µM (inactive) with NCI/ADR-RES. The GI50 in the experiment with OVCAR-3 is 3.72 µM (inactive); with OVCAR-5, 16.2 µM (inactive); with OVCAR-8, 4.27 µM (inactive); with SK-MEL-28, 3.4 µM (inactive); in the experiment with SNB-75, 6.62 µM (inactive); in the experiment with SR, 2.35 µM (inactive). In addition, the GI50 was 6.32 µM (inactive) with TK-10 and 12.1 µM (inactive) with U-251.
